Data taken from patent EP0094564A2, “Azolyl-methyl oxiranes, their preparation and use as medicaments and plant protecting agents” (BASF Aktiengesellschaft, priority 1982, dated 1983).
Converted amounts (≈) assume the structure as drawn.

How the values were obtained:
[1] = tested on: Weizenmehltau (Erysiphe graminis var. tritici); experiment: Versuch 1: activity against wheat powdery mildew on wheat seedlings; type: in vivo; conditions: 0,025; 0,006; 0,0015 %ige Spritzbrühen; sprayed 24 h before inoculation; assessed after 7 days; value given as 'beispielsweise'
Protocol: Blätter von in Töpfen gewachsenen Weizenkeimlingen der Sorte "Jubilar" wurden mit wäßriger Spritzbrühe, die 80 % (Gew.%) Wirkstoff und 20 % Emulgiermittel in der Trockensubstanz enthielt, besprüht und 24 Stunden nach dem Antrocknen des Spritzbelages mit Oidien (Sporen) des Weizenmehltaus (Erysiphe graminis var. tritici) bestäubt. Die Versuchspflanzen wurden anschließend im Gewächshaus bei Temperaturen zwischen 20 und 22 °C und 75 bis 80 % relativer Luftfeuchtigkeit aufgestellt. Nach 7 Tagen wurde das Ausmaß der Mehltauentwicklung ermittelt.

[2] = tested on: Weizenbraunrost (Puccinia recondita); experiment: Versuch 2: activity against wheat brown rust on wheat seedlings; type: in vivo; conditions: 0,025; 0,006; 0,0015 %ige Spritzbrühen; sprayed 24 h after inoculation; assessed after 8 days; value given as 'beispielsweise'
Protocol: Blätter von in Töpfen gewachsenen Weizensämlingen der Sorte "Jubilar" wurden mit Sporen des Braunrostes (Puccinia recondita) bestäubt. Danach wurden die Töpfe für 24 Stunden bei 20 bis 22°C in eine Kammer mit hoher Luftfeuchtigkeit (90 bis 95 %) gestellt. Während dieser Zeit keimten die Sporen aus und die Keimschläuche drangen in das Blattgewebe ein. Die infizierten Pflanzen wurden anschließend mit wäßrigen Spritzbrühen, die 80 % Wirkstoff und 20 % Emulgiermittel in der Trockensubstanz enthielten, tropfnaß gespritzt. Nach dem Antrocknen des Spritzbelages wurden die Versuchspflanzen im Gewächshaus bei Temperaturen zwischen 20 und 22°C und 65 bis 70 % relativer Luftfeuchte aufgestellt. Nach 8 Tagen wurde das Ausmaß der Rostpilzentwicklung auf den Blättern ermittelt.

Botrytis cinerea = experiment: Versuch 4: activity against Botrytis cinerea on paprika seedlings; type: in vivo; conditions: 0,05 %ige Spritzbrühe; sprayed before inoculation; assessed after 5 days; value given as 'beispielsweise'
Description: Paprikasämlinge der Sorte "Neusiedler Ideal Elite" wurden, nachdem sich 4 bis 5 Blätter gut entwickelt hatten, mit wäßrigen Suspensionen, die 80 % Wirkstoff und 20 % Emulgiermittel in der Trockensubstanz enthielten, tropfnaß gespritzt. Nach dem Antrocknen des Spritzbelages wurden die Pflanzen mit einer Konidienaufschwemmung des Pilzes Botrytis cenerea besprüht und bei 22 bis 24 C in eine Kammer mit hoher Luftfeuchtigkeit gestellt. Nach 5 Tagen hatte sich die Krankheit auf den unbehandelten Kontrollpflanzen so stark entwickelt, daß die entstandenen Blattnekrosen den überwiegenden Teil der Blätter bedeckten.

Chaetomium globosum = experiment: Versuch 6: fungal growth on malt extract agar containing active ingredient; type: cell-based; parameters: key: 0 = kein Pilzwachstum (Pilzmyzel abgetötet); 1 = geringes Pilzwachstum (bis 1/3 der Agaroberfläche bewachsen); 3 = mittleres Pilzwachstum (bis 2/3 der Agaroberfläche bewachsen); 5 = ungehemmtes Pilzwachstum (gesamte Agaroberfläche bewachsen); conditions: 40 ppm in 5 % malt extract agar; 5 days at 25 °C; growth score
Description: (§1) Die Wirkstoffe werden in Aceton gelöst, in Mengen von 40 ppm einem verflüssigten 5 %igen Malzextraktagar zugesetzt. Der Agar wird in Petrischalen ausgegossen und nach dem Erstarren werden die fungizidhaltigen Nähragarplatten zentral mit Myzel der holzzerstörenden Pilze Coniophora puteana und Trametes versicolor, des Moderfäule und Stockflecken verursachenden Pilzes Chaetomium globosum sowie mit Sporen des grünen Holzschimmels Trichoderma viride beimpft.
(§2) Nach fünftägiger Bebrütung der Schalen bei 25 °C wird die Entwicklung der Pilzkolonien auf dem Nährboden im Vergleich mit der Kontrolle (ohne Wirkstoff-Zusatz) beurteilt: • 0 = kein Pilzwachstum (Pilzmyzel abgetötet) • 1 = geringes Pilzwachstum (bis 1/3 der Agaroberfläche bewachsen) • 3 = mittleres Pilzwachstum (bis 2/3 der Agaroberfläche bewachsen) • 5 = ungehemmtes Pilzwachstum (gesamte Agaroberfläche bewachsen)

Coniophora puteana = experiment: as above; type: cell-based; parameters: key: 0 = kein Pilzwachstum (Pilzmyzel abgetötet); 1 = geringes Pilzwachstum (bis 1/3 der Agaroberfläche bewachsen); 3 = mittleres Pilzwachstum (bis 2/3 der Agaroberfläche bewachsen); 5 = ungehemmtes Pilzwachstum (gesamte Agaroberfläche bewachsen); conditions: 40 ppm in 5 % malt extract agar; 5 days at 25 °C; growth score
Description: as §1, §2

Trametes versicolor = experiment: as above; type: cell-based; parameters: key: 0 = kein Pilzwachstum (Pilzmyzel abgetötet); 1 = geringes Pilzwachstum (bis 1/3 der Agaroberfläche bewachsen); 3 = mittleres Pilzwachstum (bis 2/3 der Agaroberfläche bewachsen); 5 = ungehemmtes Pilzwachstum (gesamte Agaroberfläche bewachsen); conditions: 40 ppm in 5 % malt extract agar; 5 days at 25 °C; growth score
Description: as §1, §2

Trichoderma viride = experiment: as above; type: cell-based; parameters: key: 0 = kein Pilzwachstum (Pilzmyzel abgetötet); 1 = geringes Pilzwachstum (bis 1/3 der Agaroberfläche bewachsen); 3 = mittleres Pilzwachstum (bis 2/3 der Agaroberfläche bewachsen); 5 = ungehemmtes Pilzwachstum (gesamte Agaroberfläche bewachsen); conditions: 40 ppm in 5 % malt extract agar; 5 days at 25 °C; growth score
Description: as §1, §2

[3] = tested on: Gurkenmehltau (Erysiphe cichoracearum); experiment: Versuch 3: activity against cucumber powdery mildew on cucumber seedlings; type: in vivo; conditions: 0,025 %ige Spritzbrühe; sprayed about 20 h after inoculation; assessed after 21 days; value given as 'beispielsweise'
Description: Blätter von in Töpfen gewachsenen Gurkenkeimlingen der Sorte "Chinesische Schlange" wurden im Zweiblattstadium mit einer Sporensuspension des Gurkenmehltaus (Erysiphe cichoracearum) besprüht. Nach etwa 20 Stunden wurden die Versuchspflanzen mit wäßriger Spritzbrühe, die 80 % Wirkstoff und 20 % Emulgiermittel in der Trockensubstanz enthielt, bis zur Tropfnässe besprüht. Nach dem Antrocknen des J Spritzbelages wurden sie anschließend im Gewächshaus bei Temperaturen zwischen 20 und 22^00 und 70 bis 80 % relativer Luftfeuchtigkeit aufgestellt. Zur Beurteilung der Wirksamkeit der neuen Stoffe wurde das Ausmaß der Pilzentwicklung nach 21 Tagen beurteilt.

Abs. corym. 1 = experiment: Agar dilution test, minimal inhibitory concentration in vitro; type: cell-based; conditions: read-out: Minimale Hemmkonzentration (MHK) Abs. corym. 1
Description: (§3) Die Wirkung gegen Dermatophyten, Bakterien und Protozonen kann nach Methoden, wie sie beispielsweise in P. Klein, Bakteriologische Grundlagen der chemotherapeutischen Laboratoriumspraxis, Springer-Verlag Berlin, 1957, beschrieben wird, aufgezeigt werden. Die überraschende Wirkung gegenüber Hefen wurde im Pseudomyzel- und Myzelphasentest mit Candida albicans nachgewiesen (vgl. DE-OS 30 10 093). Es wurde geprüft, welche minimalen Hemmkonzentrationen (MHK-Werte) im Agardilutionstest erreicht werden. In der Tabelle 1 sind die Ergebnisse zusammengefaßt.

Aps.fum. 2 = experiment: as above; type: cell-based; conditions: read-out: Minimale Hemmkonzentration (MHK) Aps.fum. 2
Description: as §3

E.coli muta-flor = experiment: as above; type: cell-based; conditions: Escherichia coli, read-out: Minimale Hemmkonzentration (MHK) E.coli muta-flor
Description: as §3

Epid. flocc. 157 = experiment: as above; type: cell-based; conditions: read-out: Minimale Hemmkonzentration (MHK) Epid. flocc. 157
Description: as §3

Microsp. ferrug. 5 = experiment: as above; type: cell-based; conditions: read-out: Minimale Hemmkonzentration (MHK) Microsp. ferrug. 5
Description: as §3

Mucor pus. 6 = experiment: as above; type: cell-based; conditions: read-out: Minimale Hemmkonzentration (MHK) Mucor pus. 6
Description: as §3

Staph. aur. SG 511 = experiment: as above; type: cell-based; conditions: read-out: Minimale Hemmkonzentration (MHK) Staph. aur. SG 511
Description: as §3

Strept. faec. 8043 = experiment: as above; type: cell-based; conditions: read-out: Minimale Hemmkonzentration (MHK) Strept. faec. 8043
Description: as §3

Trichoph. ment. 21 = experiment: as above; type: cell-based; conditions: read-out: Minimale Hemmkonzentration (MHK) Trichoph. ment. 21
Description: as §3

Cand.alb. H = experiment: Candida albicans pseudomycelium/mycelium phase test, MIC; type: cell-based; conditions: in vitro, column H, read-out: Minimale Hemmkonzentration (MHK) Cand.alb. H
Description: as §3

Cand.alb. M = experiment: Candida albicans pseudomycelium/mycelium phase test, MIC (column M); type: cell-based; conditions: in vitro, read-out: Minimale Hemmkonzentration (MHK) Cand.alb. M
Description: as §3

Entamoeb hist. = experiment: Minimal inhibitory concentration in vitro (protozoa); type: cell-based; conditions: read-out: Minimale Hemmkonzentration (MHK) Entamoeb hist.
Description: as §3

Trichom. vag. = experiment: as above; type: cell-based; conditions: read-out: Minimale Hemmkonzentration (MHK) Trichom. vag.
Description: as §3

Row | Compound | fungizide Wirkung gegen Weizenmehltau [1] [%] | fungizide Wirkung gegen Weizenbraunrost [2] [%] | fungizide Wirkung gegen Botrytis cinerea an Paprika (Botrytis cinerea) [%] | fungizide Wirkung gegen Gurkenmehltau [3] [%] | MIC (Abs. corym. 1) [µg/mL] | MIC (Aps.fum. 2) [µg/mL] | MIC (E.coli muta-flor) [µg/mL] | MIC (Epid. flocc. 157) [µg/mL] | MIC (Microsp. ferrug. 5) [µg/mL] | MIC (Mucor pus. 6) [µg/mL] | MIC (Staph. aur. SG 511) [µg/mL] | MIC (Strept. faec. 8043) [µg/mL] | MIC (Trichoph. ment. 21) [µg/mL] | MIC (Cand.alb. H) [µg/mL] | MIC (Cand.alb. M) [µg/mL] | MIC (Entamoeb hist.) [µg/mL] | MIC (Trichom. vag.) [µg/mL] | further results
1 | Clc1ccc(C2(Cn3cncn3)OC2c2ccc(Br)cc2)cc1 (single isomer, unassigned) [Beispiel 46] | 100 | 100 | 97 | – | – | – | – | – | – | – | – | – | – | – | – | – | – | Wirksamkeit gegen Chaetomium globosum (Chaetomium globosum): 0; Wirksamkeit gegen Coniophora puteana (Coniophora puteana): 0; Wirksamkeit gegen Trametes versicolor (Trametes versicolor): 0; Wirksamkeit gegen Trichoderma viride (Trichoderma viride): 0
2 | Clc1ccc(C2OC2(Cn2cncn2)c2ccc(Br)cc2)cc1 (single isomer, unassigned) [Beispiel 44] | 100 | 100 | 97 | 100 | – | – | – | – | – | – | – | – | – | – | – | – | – | Wirksamkeit gegen Chaetomium globosum (Chaetomium globosum): 1; Wirksamkeit gegen Coniophora puteana (Coniophora puteana): 0; Wirksamkeit gegen Trametes versicolor (Trametes versicolor): 0; Wirksamkeit gegen Trichoderma viride (Trichoderma viride): 0
3 | COc1cccc(C2OC2(Cn2ccnc2)c2ccc(Cl)cc2)c1 (single isomer, unassigned) [Beispiel 29] | – | – | – | – | 8 (≈ 23.5 µM) | 16 (≈ 46.9 µM) | > 128 | 2 (≈ 5.87 µM) | 2 (≈ 5.87 µM) | 4 (≈ 11.7 µM) | 16 (≈ 46.9 µM) | 4 (≈ 11.7 µM) | 2 (≈ 5.87 µM) | 128 (≈ 376 µM) | 0.25 (≈ 0.734 µM) | > 1 | > 16 | –
4 | Clc1ccc(C2(Cn3ccnc3)OC2c2ccc(Br)cc2)cc1 (single isomer, unassigned) [Beispiel 47] | – | – | – | – | 2 (≈ 5.13 µM) | 16 (≈ 41.1 µM) | > 128 | 1 (≈ 2.57 µM) | 0.25 (≈ 0.642 µM) | 2 (≈ 5.13 µM) | 8 (≈ 20.5 µM) | 4 (≈ 10.3 µM) | 1 (≈ 2.57 µM) | 64 (≈ 164 µM) | 0.0156 (≈ 0.04 µM) | > 1 | > 16 | –
5 | CC(C)(C)C1(Cn2ccnc2)OC1c1ccc(Cl)cc1Cl (single isomer, unassigned) [Beispiel 18] | – | – | – | 100 | 32 (≈ 98.4 µM) | 0.5 (≈ 1.54 µM) | > 128 | 0.25 (≈ 0.769 µM) | 0.25 (≈ 0.769 µM) | 16 (≈ 49.2 µM) | 4 (≈ 12.3 µM) | 2 (≈ 6.15 µM) | 0.5 (≈ 1.54 µM) | > 16 | – | > 1 | > 16 | –
6 | CC(C)(C)c1ccc(C2OC2(Cn2ccnc2)c2ccc(Cl)cc2Cl)cc1 (single isomer, unassigned) [Beispiel 21] | – | – | – | – | 16 (≈ 39.9 µM) | > 128 | > 128 | 16 (≈ 39.9 µM) | 8 (≈ 19.9 µM) | 8 (≈ 19.9 µM) | 8 (≈ 19.9 µM) | 2 (≈ 4.98 µM) | 16 (≈ 39.9 µM) | 2 (≈ 4.98 µM) | 1 (≈ 2.49 µM) | > 1 | > 16 | –
7 | Clc1ccc(C2(Cn3cncn3)OC2c2ccc(Cl)cc2Cl)cc1 (single isomer, unassigned) [Beispiel 3, 2-(1,2,4-Triazol-1-yl--methyl)-2-(4-chlorphenyl)-3-(2,4-dichlorphenyl)-oxiran] | – | 100 | 97 | – | 2 (≈ 5.25 µM) | > 128 | > 128 | 4 (≈ 10.5 µM) | 2 (≈ 5.25 µM) | 1 (≈ 2.63 µM) | 32 (≈ 84.1 µM) | > 128 | 8 (≈ 21 µM) | > 128 | – | > 1 | > 16 | –
8 | Clc1ccc(C2(Cn3ccnc3)OC2c2ccc(Cl)cc2Cl)cc1 (single isomer, unassigned) [Beispiel 1, 2-(1H-Imidazol-1-yl-methyl)-2-(4-chlorphenyl)-3-(2,4-dichlorphenyl)-oxiran] | 100 | – | 97 | 100 | 0.5 (≈ 1.32 µM) | 1 (≈ 2.63 µM) | > 128 | 0.5 (≈ 1.32 µM) | – | 1 (≈ 2.63 µM) | 16 (≈ 42.1 µM) | 128 (≈ 337 µM) | 0.5 (≈ 1.32 µM) | 16 (≈ 42.1 µM) | < 0.0039 | – | > 16 | –
